Legend:
[1] = test system: MCL1 protein in HCC70 cells; assay: Western blot of BCL2 family proteins, HCC70; assay type: cell-based, human; conditions: 50 nM or 100 nM, 24 hours
Procedure: (§1) Cytotoxic cancer cell lines HCC70 and TOV21G, and cytostatic cancer cell lines T47D and COV318 were seeded in wells of a six-well dish at a density of 1×10^6 cells/well and allowed to adhere overnight. Cells were then treated with 50 nM of Compound 1 for 16 or 24 hours, or with DMSO (0 hours) representing a negative control. Cells were harvested and placed on ice, and resuspended in RIPA lysis buffer supplemented with protease and phosphatase inhibitors. Clarified lysates prepared with 4×LSD running buffer and boiled at 95° C. for 5 minutes. Equivalent amounts of sample (10 μg total protein) were run on a 4-12% Bis-Tris gel and transferred to a PDVF membrane for Western blotting using standard Western blotting protocols. Membranes were blocked with Licor TBS blocking buffer then probed with antibodies for BCL-XL, BCL-2, MCL1, BID, and GAPDH visualized using and Odyssey imager (FIGS. 23A and 23D).
(§2) In a similar experiment, TNBC breast cancer cell lines HCC70, MDAMB468, MDAMB453 and CAL-120 were grown as described above and treated with DMSO, 50 nM Compound 1 or 100 nM Compound 1 for 24 hours. Protein samples were prepared as described above for Western blotting using antibodies specific for the indicated proteins in FIG. 29A. […]

[2] = test system: MCL1 protein in MDAMB453 cells; assay: Western blot of BCL2 family proteins, MDAMB453; assay type: cell-based, human; conditions: 50 nM or 100 nM, 24 hours
Procedure: as §1, §2

[3] = test system: MCL1 protein in KG1 cells; assay: Western blot, AML cell line KG1; assay type: cell-based; conditions: 50 nM
Procedure: as §1
(§3) We next explored the expression of MCL1, BCL-XL and BCL2 in four different AML cell lines. MV411, OCI-AML3 and KG1 cells were separately grown and prepared as described in Example 2 for Western blotting, using antibodies specific for BCL2 (FIG. 24A), BCL-XL, MCL-1 and tubulin as an internal control (FIG. 24B).

[4] = test system: Rad51, CHEK1 and CHEK2 mRNA in MDA-MB-468, MDA-MB-231, Ca1120 and MDA-MB-453; assay: Quantitative PCR of DNA damage repair genes, breast cancer cell lines; assay type: cell-based; conditions: 50 nM, 6 hrs
Procedure: Breast cancer cell lines MDA-MB-468, MDA-MB-231, Ca1120 and MDA-MB-453 were plated at 200,000 cells/well in a 6-well plate the day before treatment. The next day the cells were treated with vehicle, 50 nM Compound 1 or 50 nM Paclitaxel for 6 hrs, after which cells were harvested and total RNA collected using RNeasy mini kit (Qiagen). Total RNA (500 ng) was reverse transcribed using Quantitect Reverse Transcription kit (Qiagen). Quantitative PCR for each of Rad51, CHEK1 and CHEK2 was performed on QuantStudio 6 Flex (Applied Biosystems) using Power SYBR green PCR master mix (Thermo Fisher Scientific) and primers specific for each of those genes. The change in gene expression, relative to housekeeping gene RPL27, was quantified using DDCt method.

[5] = test system: MCL1 protein in MV411 cells; assay: Western blot, AML cell line MV411; assay type: cell-based; conditions: 50 nM
Procedure: as §1, §3

BR5010 xenografts = assay: TNBC patient-derived xenograft BR5010, tumor volume; assay type: in vivo, mouse; conditions: 40 mg/kg or 30 mg/kg i.v. BIW
Procedure: Patient-derived xenograft (PDX) models from TNBC patients (BR5010, BR5013, BR5015, and BR5023) were established in NOD-SCID mice at Crown Bioscience (San Diego, USA). Cryo vials containing tumor cells were thawed and prepared for injection into mice. Cells were washed in PBS, counted, and resuspended in cold PBS at a concentration of 50,000-100,000 viable cells/100 ul. Cell suspensions were mixed with an equal volume of Cultrex ECM and kept on ice during transport to the vivarium. Cells were prepared for injections by withdrawing ECM-Cell mixture into a chilled slip-tip syringe fitted with a 26G 7/8 (0.5 mm×22 mm) needle. The filled syringes were kept on ice to avoid the solidification of ECM. Each mouse was inoculated subcutaneously in the right flank with 200 uL of the cell suspension. Tumor sizes were measured in two dimensions using a caliper, and the volumes were expressed in mm^3 using the formula: V=0.5 a×b^2, where a and b are the longest and shortest diameters of the tumor, respectively. Compound 1 treatment was started when the average tumor size reached 150-200 mm^3.
Compound 1 was formulated in w/v 20% Captisol (pH 4-6) and administered by i.v. twice weekly (BIW) at a final dose of 40 mg/kg or 30 mg/kg in a 10 ml/kg volume. Tumor volumes were measured twice weekly over the course of the study. […]

CN(C)C/C=C/C(=O)Nc1ccc(C(=O)N[C@@]2(C)CCC[C@@H](Nc3ncc(Cl)c(-c4c[nH]c5ccccc45)n3)C2)nc1 [Compound 1, N-((1S,3R)-3-(5-chloro-4-(1H-indol-3-yl)pyrimidin-2-ylamino)-1-methylcyclohexyl)-5-((E)-4-(dimethylamino)but-2-enamido)picolinamide]
MCL1 protein level (Western blot) [1]: downregulated | MCL1 protein level (Western blot) [2]: downregulated | MCL1 protein level (Western blot) [3]: significant reduction in MCL1 | mRNA expression from genes involved in DNA repair (Rad51, CHEK1, CHEK2) [4]: Downregulation | MCL1 protein level (Western blot) [5]: significant reduction in MCL1 | Tumor growth vs untreated historical samples (BR5010 xenografts): consistently inhibited tumor growth

— patent US20200113902A1, “COMPOSITIONS AND METHODS FOR TREATING CANCERS WITH COVALENT INHIBITORS OF CYCLIN-DEPENDENT KINASE 7 (CDK7)” (Syros Pharmaceuticals, Inc., priority 2017, published 2020)
